In patent publication US20190365927A1, “COMPOSITION FOR PHOTODYNAMIC THERAPY USING GENE EXPRESSING FLUORESCENT PROTEIN AND PHOTOSENSITIZER, AND PHOTODYNAMIC THERAPY METHOD USING SAME” (priority 2017, published 2019):

Columns and labels:
[1] = tested on: GFP+ A549, RFP+ A549 and YFP+ A549 cells; assay: In vitro PDT of GFP+, RFP+ and YFP+ cells with photosensitizer, MTT analysis; format: cell-based, human; conditions: 1 μM, blue laser light (488 nm), FIG. 20
Description: Photo inducing death of GFP+, RFP+, and YFP+ cells via the photosensitizer was measured by MTT analysis. The specific experimental procedure is as follows.
To investigate photo inducing death of GFP+ cells, RFP+ cells, and YFP+ cells via the photosensitizer, rose bengal, hematoporphyrin (Sigma-aldrich #5518) or 5-ALA (5-Aminolevulinic acid hydrochloric, Sigma-aldrich # A3785) was diluted with RPMI medium containing 10% FBS. 1 μM concentration of rose bengal, hematoporphyrin or 5-ALA was prepared. Further, GFP+ A549 cells, RFP+ A549 cells and YFP+ A549 cells selected from the 1-4 were pre-incubated at a density of 5×10^3 cells per well on 96-well, black, and clear bottom plates. A549 cells with pcDNA 3.1 vector injected thereto were cultured as control. Then, each of the photosensitizers as produced was applied or not applied to the preincubated cells in the preincubated cells which in turn were cultured for 4 hours. After 4 hours, the cells were washed three times with PBS buffer. Irradiation or non-irradiation of blue laser light (488 nm; radiation dose rate=2 J/cm^2) or yellow laser light (570 nm; radiation dose rate=2 J/cm^2) thereto was carried out for 5 seconds. After irradiation or non-irradiation, a fresh culture medium was added to the wells. The cells were cultured again for 24 hours. MTT analysis was then performed.

Lgr5+ cells = assay: cFRET PDT of colon polyps in azoxymethane/DSS-treated GFP-Lgr5 mice; format: in vivo, mouse; conditions: FIG. 4E
Description: To generate sporadic tumors, azoxymethane (10 mg/kg) was intraperitoneally injected into wild-type mice or GFP-Lgr5 mice. In one week after injection, mice were given 2% DSS as drinking water for 7 days. The next 7 days, the mice were given water normally. This DSS application cycle was repeated three times. Mice were randomly divided into 4 groups (n=5 per group).
Another group of 5 mice as wild-type and GFP-Lgr5 mice was set to a group that was not chemically treated. RB was intravenously injected (50 nM/mL, 0.75 ml/kg) into the wild type and GFP-Lgr5 mice of each experimental group twice a week for 7 weeks. And, in 4 hours after the RB injection, blue light (2 min) irradiation was performed via an anal penetration.
Polyp growth was monitored by endoscopy via polyp diameter measurements. After anesthesia, the mice were placed on the stage for colonoscopy. […] Each image was captured by capturing the image from the recorded video file using frame-extraction software. The tumor size was measured from the images (width×height×2). The distance-dependent magnification of the colonoscopy was calculated by imaging using a ruler in the same field.
To compare tumor sizes before and after FR-PDT, well-isolated tumors were selected. The locomotion path used in […] was recorded in detail for each tumor. The tumor location is determined based on the structure of the surrounding tissue. […]

eGFP− 4T1 cells = assay: In vitro PDT with rose bengal and blue laser light, MTT analysis; format: cell-based, Mus musculus; conditions: 473 nm laser light after RB treatment, similar conditions, FIG. 2A
Description: The photo inducing death of GFP− and GFP+ cells after blue light irradiation was measured by MTT analysis in the presence or absence of rose bengal (RB). The specific experimental procedure is as follows.
RB was diluted with DMEM containing 10% FBS to produce RB at concentrations of 6.25, 12.5, 25, 50, and 100 μM. GFP− and GFP+ cells were pre-incubated in 96-well, black, and clear bottom plates at a density of 2×10^4 cells per well. Then cells were incubated with RB for 4 hours. The addition of a fresh culture medium without photosensitizer to the wells was performed. This was used as an untreated control. Cells were washed 3 times with PBS buffer.
In the PDT-treated group, the cell was irradiated with blue laser light (473 nm, radiation dose rate=80 mW/cm^2) for 1 to 60 seconds. The toxicity of pure RB on GFP+ and GFP− cells was measured in the dark room. After the irradiation, the fresh culture medium was added to the wells, and cells were cultured again for 24 hours. The medium was then measured by MTT assay. […] The absorbance of the reaction solution was measured at 570 nm. Cell viability was calculated by the following equation: […]
Each experiment was performed independently. Cell death was measured by LDH analysis.
Th cells were seeded on a 24-well plate at a density of 5×10^4 per well. […] The absorbance was measured at 490 nm using a plate reader.

[2] = Absorbance spectrum of the photosensitizer; format: physicochemical; conditions: FIG. 1A

O=C1OC2(c3cc(I)c(O)c(I)c3Oc3c2cc(I)c(O)c3I)c2c(Cl)c(Cl)c(Cl)c(Cl)c21 [RB, rose bengal]
cell death effect, YFP+ versus GFP+ cell [1]: the cell death effect of the YFP+ cell is higher than that of GFP+ cell
polyp growth (Lgr5+ cells; Lgr5-EGFP-IRES-creERT2 knock-in mice compared to wild-type mice, 473 nm laser, 4F): polyp growth was inhibited
number of polyps (Lgr5+ cells; cFRET treatment): decreased
eGFP− cells killed (eGFP− 4T1 cells): 20%
maximum absorbance [2]: 549 nm
shoulder absorbance spectrum [2]: 510 nm
